Results from patent publication US8597660B2, “Therapeutic approach to neurodegenerative disorders using a TFP5-peptide” (The United States of America, as represented by the …, priority 2010, dated 2013).
Entries after “also recorded” stand apart in the source; their conditions may differ. Peptide text beside a SMILES is read from it. * marks the point of attachment. FITC = O=C1OC2(c3ccc(O)cc3Oc3cc(O)ccc32)c2ccc(NC(=S)*)cc21

Columns and labels:
[1] = Toxicity of ip TFP5 in mice; format: in vivo, mouse; details: ip TFP5 (0.2 mM; or 10 weeks in three AD mice)
tau phosphorylation = assay: Aβ-induced tau phosphorylation in cortical neurons, Western blot; format: cell-based, rat; details: Aβ 6 h; P5 infection or roscovitine
Procedure: Primary cultures of rat cortical neurons were prepared from E-18 rat fetuses as described previously (Zheng et al., J Biol Chem 278(26), 24026-24032, 2003). After 7 days, cells were infected independently or co-infected with empty vector (EV), the constructs of P5, P25, P35, wild-type Cdk5 and dominant negative Cdk5 (changing Lys33 to Thr33) using the Adenoviral vector (pAdTrack-CMV) packaging system as described above. […] The cells were fixed for immunocytochemistry analyses (ICC) or lysed with lysis buffer for immunoprecipitation and Western blot analyses. Cortical neuron cultures were prepared and plated on the cover slips as described. Human embryo kidney cells (HEK293) were grown as described previously (Zheng et al., Eur J Biochem 269(18), 4427-4434, 2002). In these studies HEK293 cells on day 1, or neurons on day 5, were transfected with or without Myc-P5-GFP using Lipofectamine 2000 following the manufacturer's instructions.
(§1) Western blot analysis was performed as previously described (Zheng et al., Eur J Biochem 269(18), 4427-4434, 2002). In brief, an equal amount of total protein (20 μg/lane) was resolved on a 4-20% SDS polyacrylamide gel and blotted onto a polyvinylidene difluoride membrane. This membrane was incubated in blocking buffer containing 20 mM Tris-HCl (pH 7.4), 150 mM NaCl, and 0.1% (vol/vol) Tween 20 (TTBS) plus 5% dry milk (w/v) for 1 hour at room temperature followed by incubation overnight at 4° C. in primary antibodies (see antibodies). The membranes were then washed four times in TTBS (5 minutes/each) followed by incubation in secondary antibody (goat-antimouse or goat anti-rabbit IgG (H+L)-horseradish peroxidase (HRP) conjugate at a dilution of 1:3000) for 1 hour at room temperature. Western blots were analyzed using the Amersham Enhanced Chemiluminescence (ECL) kit following the manufacturer's instructions (GE Healthcare, Piscataway, N.J.).
Amyloid plaques and neurofibrillary tangles, pathological hallmarks of several neurodegenerative disorders, are linked to deregulated Cdk5 and neuronal death. According to one model, β amyloid, being toxic, may evoke abnormal calcium influx into neurons which activates calpains. […] Hyperactivation of Cdk5, leads to the aberrant phosphorylation of tau and neurofilaments in a number of neurodegenerative diseases including AD and ALS. For example, primary cortical neurons, when treated with Aβ1-42 are induced to form Cdk5/P25 complexes, hyperactive Cdk5 activity, hyperphosphorylation of tau, and neuronal apoptosis. To determine whether P5 will inhibit endogenous tau phosphorylation induced by Aβ treatment in cortical neurons, 7 day old cortical neurons, infected with empty vector (EV) or with P5 were treated with Aβ for 6 hours, lysed and prepared for Cdk5 immunoprecipitation and kinase assay. Aβ treatment causes an approximate 3-fold increase in endogenous Cdk5 activity as visualized by histone H1 phosphorylation (FIG. 4A, panel 5, lane 2; FIG. 4B).
; FIG. 4D). […] Tau antibodies p-Ser404, PHF antibody AT180 (recognizes p-Thr231) and p-Ser422 antibodies were used to observe whether P5 affects other tau phosphorylation residues (FIGS. 4E, 4F). […]. Tau 5 recognizes total tau, nonphosphorylated as well as phosphorylated.

cleaved caspase-3 = assay: Cleaved caspase-3 Western blot in Aβ-treated cortical neurons; format: cell-based, rat; details: Aβ 6 h; P5 infection or roscovitine
Procedure: as §1
To determine whether P5 inhibited neuronal apoptosis induced by Aβ, primary cortical neurons (5 days in culture (DIC)) were transfected with P5-GFP using Lipofectamine 2000. After 24 hours, cells were exposed to Aβ for 6 hours. The neurons were fixed and subjected to TUNEL staining, while P5 was visualized by (green fluorescent protein) GFP. […] The data are quantified in FIG. 5B. […] The data are quantified in FIG. 5D.

Cdk5/P25 [2] = target: T1, Cdk5/P25 (Homo sapiens, UniProt Q00535); details: earlier studies, cited from earlier work
T1 sequence (Q00535 whole entry, species assumed): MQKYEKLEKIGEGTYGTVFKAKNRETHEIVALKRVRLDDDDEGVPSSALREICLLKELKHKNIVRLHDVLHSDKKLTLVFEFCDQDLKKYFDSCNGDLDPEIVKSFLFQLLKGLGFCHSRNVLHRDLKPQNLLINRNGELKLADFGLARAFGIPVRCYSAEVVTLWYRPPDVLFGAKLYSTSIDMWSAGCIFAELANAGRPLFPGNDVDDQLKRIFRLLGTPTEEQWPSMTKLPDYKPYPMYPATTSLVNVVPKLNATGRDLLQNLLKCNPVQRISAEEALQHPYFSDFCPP

Cdk5/P25 [3] = target: T1, Cdk5/P25; details: earlier studies; cited from earlier work
Cdk5/P25 [4] = target: T1, Cdk5/P25; assay: In vitro kinase (pad) assay of active Cdk5/P25 with histone H1 as substrate; format: biochemical; details: in vitro kinase assay, histone H1, FIG. 1
Procedure: Kinase assays were performed as previously described (Veeranna, et al., J Neurosci 18(11), 4008-4021, 1998). Briefly, 7 days in culture (7 DIC) primary rat cortical neurons were infected with P25, P35, Cdk5 wild-type, dominant negative-Cdk5 and P5 using the lentiviral gene delivery as described earlier. Cdk5 was immunoprecipitated using the polyclonal C8 antibody overnight at 4° C. and immunoglobulin isolated using Protein A sepharose beads for 2 hours at 4° C. Immunoprecipitates were washed three times with lysis buffer and then once with 1× kinase buffer containing 20 mM Tris-Cl pH 7.4, 1 mM EDTA, 1 mM EGTA, 10 mM MgCl2, 10 mM sodium fluoride and 1 mM sodium orthovanadate. Endogenous Cdks were immunoprecipitated from HEK 293 cells using their respective antibodies and treated as above. Kinase assays were performed in the same buffer containing 1 mM DTT, 0.1 mM ATP and 0.185 MBq [γ-32P] ATP with 20 μg of histone H1 as the substrate. Phosphorylation was performed in a final volume of […] incubated at 30° C. for 60 minutes, stopped by the addition of 10% SDS sample buffer and heating at 95° C. for 5 minutes. Samples were separated by SDS-PAGE, gels were stained with Coomassie, destained, dried and exposed to autoradiography. In pad assays, 25 μl aliquots of the incubation mixture were placed on a Whatman p80 paper square, washed and dried and placed in a scintillation vial for counting.
These are GST-P1 (E211-A277 of SEQ ID NO: 16), 67 amino acid residues; GST-P2 (M237-A277), 41 residues; GST-P3 (E221-L267 of SEQ ID NO: 16), 47 residues; GST-P4 (E221-L249 of SEQ ID NO: 16), 29 residues and GST-P5 (K254-A277 of SEQ ID NO: 16) 24 residues. Each was incubated with active Cdk5/P25 in a kinase assay in vitro. […] FIG. 10 provides a comparison of P5 and CIP, relative to P35.
In a dose-dependent kinase assay the effective inhibitory concentration of P5 for both the Cdk5/P25 and Cdk5/P35 complexes was evaluated. His-P5 peptide was added at different concentrations to the in vitro assay containing 100 μM [γ32-P] ATP and histone H1. Inhibition increased progressively with increasing P5 concentration in both complexes (Compare FIGS. 2A, 2B with 2C, 2D).
P5, a 24 amino acid peptide derived from Cdk5 regulator p35, was modified by conjugating it with TAT PTD at the C-terminal end and with FITC (using a GGG linker) at the N-terminus to produce a fluorescent (FITC-labeled) TFP5 (SEQ ID NO: 2) peptide. In a dose-dependent kinase assay the effective inhibitory concentration of TFP5 for both the Cdk5/P25 and Cdk5/P35 complexes was evaluated. His-P5 peptide was added at different concentrations to the in vitro assay containing 100 μM [γ32-P] ATP and histone H1. […] Data represent means of four independent experiments with error bars representing SEM (*p≦0.05, **p≦0.001).

CC[C@H](C)[C@H](NC(=O)[C@H](CCC(N)=O)NC(=O)[C@H](CC(C)C)NC(=O)[C@H](CCSC)NC(=O)[C@H](CCCCN)NC(=O)[C@H](CO)NC(=O)[C@H](CO)NC(=O)[C@H](CCSC)NC(=O)[C@H](CC(C)C)NC(=O)[C@H](CC(N)=O)NC(=O)[C@@H](NC(=O)[C@@H](NC(=O)[C@H](CO)NC(=O)[C@H](CC(C)C)NC(=O)[C@H](CS)NC(=O)[C@H](CCCNC(=N)N)NC(=O)[C@H](CC(=O)O)NC(=O)[C@H](Cc1c[nH]c2ccccc12)NC(=O)[C@H](Cc1ccccc1)NC(=O)[C@H](C)NC(=O)[C@H](CCC(=O)O)NC(=O)[C@H](CCCCN)NC(=O)CNC(=O)CNC(=O)CNC(=S)Nc1ccc2c(c1)C(=O)OC21c2ccc(O)cc2Oc2cc(O)ccc21)C(C)C)[C@@H](C)CC)C(=O)N[C@@H](CC(N)=O)C(=O)N[C@@H](C)C(=O)N[C@@H](Cc1ccc(O)cc1)C(=O)N[C@@H](C)C(=O)N[C@@H](CCCNC(=N)N)C(=O)N[C@@H](C)C(=O)N[C@@H](C)C(=O)N[C@@H](CCCNC(=N)N)C(=O)N[C@@H](CCCNC(=N)N)C(=O)N[C@@H](C)C(=O)N[C@@H](C)C(=O)N[C@@H](CCCNC(=N)N)C(=O)N[C@@H](CCCNC(=N)N)C(=O)O [TFP5] ({FITC}-GGGKEAFWDRCLSVINLMSSKMLQINAYARAARRAARR-OH)
Toxicity in vivo [1]: without any toxicity; also recorded: without resulting in cell death; also recorded: no toxic effects were observed

CC[C@H](CO)Nc1nc(NCc2ccccc2)c2ncn(C(C)C)c2n1 [roscovitine, reference compound]
Aβ-induced tau phosphorylation at Ser422 (tau phosphorylation): significantly inhibits tau phosphorylation at Ser422 site | Aβ-induced tau phosphorylation detected by AT8 and p-Ser199/202 antibodies (tau phosphorylation): baseline levels of tau phosphorylation; also recorded: significantly inhibited | Cleaved caspase-3 expression (cleaved caspase-3): reduced levels of cleaved caspase-3 comparable to that seen with P5 infection

CIP: 125-amino acid truncated peptide from P35 (residues 154-279 of SEQ ID NO: 16), inhibitor of Cdk5/P25
Tau hyperphosphorylation (Cdk5/P25 [2]): reduces tau hyperphosphorylation | Apoptosis induced by Cdk5/P25 (Cdk5/P25 [2]; transfected HEK cells and neurons): protects transfected HEK cells and neurons from apoptosis | Inhibition of Cdk5/P25 activity by CIP (Cdk5/P25 [3]): highly effective and specific inhibitor of Cdk5/P25 activity

P3: 47 residue peptide derived from CIP, E221-L267 of SEQ ID NO: 16 (P35)
Inhibition of Cdk5/P25 activity, comparison among peptides and CIP (Cdk5/P25 [4]): more effective inhibitors of Cdk5/P25 activity than CIP
